In US10793563B2, “GCN2 inhibitors and uses thereof” (Merck Patent GmbH, priority 2018, dated 2020) one finds IC50 and Ki data, which are given here for eleven compounds.

SMILES strings stand for the structures.

Test [1] concerns the target GCN2 kinase (Homo sapiens (Human), UniProt Q9P2K8). Description: GCN2 Enzyme Inhibition Assay (Transcreener ADP2 fluorescence polarization). Type of test: biochemical. The conditions noted are these: 280 μM ATP, 200 μM (RS)7 peptide, 4 nM GCN2, 25° C.; for Ki: Ki(app). A digest of the protocol:
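Transcreener ADP2 fluorescence polarization detection of ADP from 4 nM GCN2 with (RS)7 substrate in 25 mM Tris-HCl pH 7.5, 50 mM NaCl, 10 mM MgCl2, 1 mM DTT. Compound pre-incubated with enzyme 10 min at 25 °C; reaction started by ATP, run 1 h at 25 °C. IC50 and Ki(app) by tight-binding fit.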

The target in test [2] is intracellular GCN2 (phosphorylation of the GCN2 substrate eIF2α) (Homo sapiens (Human), UniProt Q9P2K8). Description: GCN2 Cellular Inhibition Assay (AlphaScreen SureFire P-eIF2α Ser51, borrelidin-treated U2OS cells). Type of test: cell-based. The conditions noted are these: 10 μM borrelidin, 1 h, phosphorylated eIF2α Ser51, read-out: GCN2 Biomarker (IC50). A digest of the protocol: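 U2OS cells adhered overnight, then given compound (top 40 μM, 4-fold serial dilutions) plus 10 μM borrelidin for 1 h at 37 °C. Lysates assayed for eIF2α phospho-Ser51 by AlphaScreen SureFire; % inhibition versus borrelidin-only wells.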
Sequence of intracellular GCN2 (phosphorylation of the GCN2 substrate eIF2α) (Q9P2K8 whole entry): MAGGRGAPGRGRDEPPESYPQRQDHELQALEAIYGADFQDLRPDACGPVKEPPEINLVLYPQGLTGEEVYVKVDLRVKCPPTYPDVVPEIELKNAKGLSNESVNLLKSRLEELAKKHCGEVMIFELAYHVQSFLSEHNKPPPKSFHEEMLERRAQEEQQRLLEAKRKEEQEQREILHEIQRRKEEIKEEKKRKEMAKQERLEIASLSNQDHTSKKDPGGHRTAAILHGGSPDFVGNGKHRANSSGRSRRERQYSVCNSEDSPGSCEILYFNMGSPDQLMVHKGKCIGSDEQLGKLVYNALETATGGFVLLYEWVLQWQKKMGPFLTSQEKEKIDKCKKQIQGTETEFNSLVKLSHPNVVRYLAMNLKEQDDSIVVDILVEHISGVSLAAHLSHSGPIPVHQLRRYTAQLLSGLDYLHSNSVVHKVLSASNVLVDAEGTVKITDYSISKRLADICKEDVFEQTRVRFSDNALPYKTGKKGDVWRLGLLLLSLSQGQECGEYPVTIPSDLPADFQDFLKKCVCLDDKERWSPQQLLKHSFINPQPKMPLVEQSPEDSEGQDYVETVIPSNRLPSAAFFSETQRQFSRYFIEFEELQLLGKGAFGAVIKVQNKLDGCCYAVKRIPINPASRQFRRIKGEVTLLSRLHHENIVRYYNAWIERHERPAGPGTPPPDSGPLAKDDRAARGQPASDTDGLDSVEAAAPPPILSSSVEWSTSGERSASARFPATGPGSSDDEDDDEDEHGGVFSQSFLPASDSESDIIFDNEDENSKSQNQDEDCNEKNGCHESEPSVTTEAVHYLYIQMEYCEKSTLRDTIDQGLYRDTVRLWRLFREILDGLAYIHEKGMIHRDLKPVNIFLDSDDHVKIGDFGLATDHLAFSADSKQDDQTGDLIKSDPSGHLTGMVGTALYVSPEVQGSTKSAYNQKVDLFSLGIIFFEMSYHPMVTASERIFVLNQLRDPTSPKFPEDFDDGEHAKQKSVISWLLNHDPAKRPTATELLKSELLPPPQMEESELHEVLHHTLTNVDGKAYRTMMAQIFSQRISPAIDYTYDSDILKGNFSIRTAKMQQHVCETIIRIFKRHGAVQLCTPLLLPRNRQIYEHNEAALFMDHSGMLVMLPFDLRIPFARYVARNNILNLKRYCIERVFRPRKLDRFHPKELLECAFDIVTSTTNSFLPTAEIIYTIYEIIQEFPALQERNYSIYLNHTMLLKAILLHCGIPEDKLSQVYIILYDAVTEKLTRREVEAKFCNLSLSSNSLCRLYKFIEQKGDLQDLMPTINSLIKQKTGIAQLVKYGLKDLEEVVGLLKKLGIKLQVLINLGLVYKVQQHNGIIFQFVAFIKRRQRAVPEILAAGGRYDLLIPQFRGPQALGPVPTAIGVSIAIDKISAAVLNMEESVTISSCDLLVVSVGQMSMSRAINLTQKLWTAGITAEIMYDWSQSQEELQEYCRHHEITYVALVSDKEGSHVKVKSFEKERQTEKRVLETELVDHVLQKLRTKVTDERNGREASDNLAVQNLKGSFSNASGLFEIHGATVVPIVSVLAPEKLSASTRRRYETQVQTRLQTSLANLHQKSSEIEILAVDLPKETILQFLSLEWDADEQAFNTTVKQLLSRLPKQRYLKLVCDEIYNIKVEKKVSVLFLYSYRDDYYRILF

Sequence of GCN2 kinase (Q9P2K8 whole entry): as above

With `C[C@@H]1[C@@H](c2cn[nH]c2)NCCN1c1ccnc(-c2cnc3ccc(C(F)(F)F)cn23)n1` [I-536, 3-(4-((2R,3R)-2-methyl-3-(1H-pyrazol-4-yl)piperazin-1-yl)pyrimidin-2-yl)-6-(trifluoromethyl)imidazo[1,2-a]pyridine], the results for the IC50 in test [1] and in test [2] were 100 to 1000 nM and 500 to 5000 nM, respectively.
As to `C[C@@H]1[C@@H](CNS(C)(=O)=O)N(C2CC2)[C@H](C)CN1c1ccnc(-c2cnc3ccc(C(F)(F)F)cn23)n1` (stereo in doubt) [I-493, N-(((2R,3R,6R)-1-cyclopropyl-3,6-dimethyl-4-(2-(6-(trifluoromethyl)imidazo[1,2-a]pyridin-3-yl)pyrimidin-4-yl)piperazin-2-yl)methyl)methanesulfonamide], the half-maximal inhibitory concentration (IC50) in test [1] was 10 to 100 nM; in test [2], less than 500 nM.
Take `Cc1cnc(N2C[C@@H](C)C[C@H](c3cn[nH]c3)C2)nc1-c1cnc2ccc(Cl)cn12` (stereo in doubt) [I-197, 6-chloro-3-(5-methyl-2-((3 S, 5R)-3-methyl-5-(1H-pyrazol-4-yl)piperidin-1-yl)pyrimidin-4-yl)imidazo[1,2-a]pyridine]: the IC50 was 10 to 100 nM in test [1] and less than 500 nM in test [2].
Turning to `C[C@@H](NS(C)(=O)=O)[C@@H]1[C@H](C)N(c2ccnc(-c3cnc4ccc(C(F)(F)F)cn34)n2)CCN1C1CC1` [I-506, N—((R)-1-((2 S,3 S)-1-cyclopropyl-3-methyl-4-(2-(6-(trifluoromethyl)imidazo[1,2-a]pyridin-3-yl)pyrimidin-4-yl)piperazin-2-yl)ethyl)methanesulfonamide], the IC50 fell in the range of 10 to 100 nM in test [1] and 500 to 5000 nM in test [2].
Taken in the same sequence, the figures for `COc1cc(-c2cnc3ccc(Cl)cn23)nc(N2C[C@H](C)C[C@H](c3cn[nH]c3)C2)n1` [I-279, 6-chloro-3-(6-methoxy-2-((3R,5R)-3-methyl-5-(1H-pyrazol-4-yl)piperidin-1-yl)pyrimidin-4-yl)imidazo[1,2-a]pyridine] were 10 to 100 nM and 500 to 5000 nM.
Taken in the same sequence, the figures for `CC(C)(C(=O)O)C1CCCN(c2ccnc(-c3cnc4ccc(Cl)cn34)n2)C1` (centres unmarked) [I-284, 2-(1-(2-(6-chloroimidazo[1,2-a]pyridin-3-yl)pyrimidin-4-yl)piperidin-3-yl)-2-methylpropanoic acid] were 10 to 100 nM and more than 5000 nM.
Taken in the same sequence, the figures for `c1ccc(Oc2ccc3ncc(-c4nccc(N5CCCC(c6cn[nH]c6)C5)n4)n3c2)cc1` (centres unmarked) [I-329, 2-{6-phenoxyimidazo[1,2-a]pyridin-3-yl}-4-[3-(1H-pyrazol-4-yl)piperidin-1-yl]pyrimidine] were 10 to 100 nM and less than 500 nM.
As to `OCC1(c2ccccc2)CCCN(c2ccnc(-c3cnc4cc(F)c(Cl)cn34)n2)C1` (centres unmarked) [I-85, {1-[2-(6-Chloro-7-fluoro-imidazo[1,2-a]pyridin-3-yl)-pyrimidin-4-yl]-3-phenyl-piperidin-3-yl}-methanol], the Ki in test [1] was 100 to 1000 nM. Further, the IC50 in test [2] was more than 5000 nM.
The compound `Cc1noc([C@H]2CN(c3ccnc(-c4cnc5ccc(C#N)cn45)n3)C[C@@H](C)O2)n1` [I-92, 3-{4-[(2R,6R)-2-methyl-6-(3-methyl-1,2,4-oxadiazol-5-yl)morpholin-4-yl]pyrimidin-2-yl}imidazo[1,2-a]pyridine-6-carbonitrile] came in with a Ki in test [1] of less than 10 nM. The half-inhibitory concentration (IC50) in test [2] was 500 to 5000 nM.
Regarding `CC1CC(C(N)=O)CN(c2ccnc(-c3cnc4ccc(C(F)(F)F)cn34)n2)C1` (centres unmarked) [I-149, 5-Methyl-1-[2-(6-trifluoromethyl-imidazo[1,2-a]pyridin-3-yl)-pyrimidin-4-yl]-piperidine-3-carboxylic acid amide], the IC50 is less than 10 nM in test [1] and less than 500 nM in test [2]. Also, the Ki in test [1] is less than 10 nM.
Consider `O=C(O)CC1CN(c2ccnc(-c3cnc4ccc(Cl)cn34)n2)CCO1` (centres unmarked) [I-298, 2-(4-(2-(6-chloroimidazo[1,2-a]pyridin-3-yl)pyrimidin-4-yl)morpholin-2-yl)acetic acid], for which the values for the IC50 in test [1] and in test [2] were 100 to 1000 nM and more than 5000 nM, respectively.
